Source: publication PMC2805098 (Biochemistry, 2009)
Where “and” joins values, the source holds several entries; their conditions need not be identical. Identical values can stand only once. Like-named read-outs stand apart in the source and are kept apart here.

Experiments:
Phe223Leu MTHFR [1] = molecular target: T1, Phe223Leu MTHFR (Escherichia coli, UniProt P0AEZ1, F223L); experiment: Oxidative half-reaction with CH2-H4folate, stopped-flow; type: biochemical
Phe223Leu MTHFR [2] = molecular target: T1, Phe223Leu MTHFR; experiment: NADH-CH2-H4folate oxidoreductase assay, steady-state; type: biochemical
wild-type MTHFR [3] = conditions: 25 °C, cited from earlier work
Phe223Ala MTHFR [4] = molecular target: T2, Phe223Ala MTHFR (Escherichia coli, UniProt P0AEZ1, F223A); experiment: NADH-CH2-H4folate oxidoreductase assay, steady-state
wild-type MTHFR [5] = conditions: 25 °C, pH 7.2, cited from earlier work
Phe223Ala MTHFR [6] = molecular target: T2, Phe223Ala MTHFR; experiment: Oxidative half-reaction with CH2-H4folate, stopped-flow; type: biochemical
Phe223Ala MTHFR [7] = molecular target: T2, Phe223Ala MTHFR; experiment: Reaction of reduced enzyme with menadione, stopped-flow; type: biochemical; conditions: […] μM menadione, within dead time of the instrument, data not shown
Phe223Leu MTHFR [8] = molecular target: T1, Phe223Leu MTHFR; experiment: as above; type: biochemical; conditions: […] μM menadione, within dead time of the instrument, data not shown
Phe223Leu MTHFR [9] = molecular target: T1, Phe223Leu MTHFR; experiment: Reductive half-reaction with NADH, stopped-flow; type: biochemical
PheA2 = conditions: read-out: Km for NADH; 53 °C; cited from earlier work
Phe223Ala MTHFR [10] = molecular target: T2, Phe223Ala MTHFR; experiment: Reductive half-reaction with NADH, stopped-flow; type: biochemical
wild-type MTHFR [11] = conditions: 25 °C, pH 7.2; cited from earlier work
HpaC = conditions: read-out: Km for NADH; 30 °C; cited from earlier work
Phe223Ala MTHFR [12] = molecular target: T2, Phe223Ala MTHFR; experiment: NADH-menadione oxidoreductase assay, steady-state; type: biochemical; conditions: […] μM menadione, varying NADH, 25 °C, pH 7.2
Phe223Leu MTHFR [13] = molecular target: T1, Phe223Leu MTHFR; experiment: NADH-menadione oxidoreductase assay, steady-state; type: biochemical
wild-type MTHFR [14] = conditions: 25 °C, pH 7.2, cited from earlier work; remark: listed apart in the source
Phe223Leu MTHFR [15] = molecular target: T1, Phe223Leu MTHFR; experiment: NADPH binding; conditions: data not shown
[16] = 25 °C, pH 7.2, anaerobic, 450 nm

In the case of `Nc1nc2c(c(=O)[nH]1)N1CN(c3ccc(C(=O)N[C@@H](CCC(=O)O)C(=O)O)cc3)C[C@H]1CN2` [CH2-H4folate, 5,10-methylenetetrahydrofolate], the Kd (Phe223Leu MTHFR [1]) is reported as 9 ± 2 µM, the “increase in rate of oxidation compared to slow phase of wild-type enzyme” value (Phe223Leu MTHFR [1]) is reported as 3 fold and the Ki (Phe223Leu MTHFR [2]) is reported as 160 ± 27 µM. For the same molecule, the “CH2-H4folate concentration above which inhibition was seen” value (Phe223Leu MTHFR [2]; 1000 μM NADH) was “exceeding 100 μM”, the “theoretical turnover number calculated from the two half-reactions” value (Phe223Leu MTHFR [2]; eq 8, ping-pong bi-bi) was 17 s⁻¹ and the “k5’, slow phase” value (wild-type MTHFR [3]; pH 7.2, slow phase) was 10.3 ± 1.0 ^e s^−1. For the same molecule, the Kd (wild-type MTHFR [3]; read-out: Kd for CH2-H4folate, pH 7.2) was 11 ± 1 µM, the “decrease in kcat compared to wild-type” value (Phe223Ala MTHFR [4]) was 4 fold and the kcat (Phe223Ala MTHFR [4]; anaerobic, 25 °C, pH 7.2) was 2.9 s⁻¹ and 2.9 ± 0.5 s⁻¹. The “theoretical turnover number calculated from the two half-reactions” value (Phe223Ala MTHFR [4]; eq 9, slow phase of oxidation) was 4.0 s⁻¹, the kcat (wild-type MTHFR [5]) was 10.4 ± 1.0 s⁻¹ and the Ki (wild-type MTHFR [5]; read-out: Ki for CH2-H4folate) was 320 ± 25 µM. The Km (wild-type MTHFR [5]; read-out: Km for CH2-H4folate) was 0.5 ± 0.1 µM, the Kd (Phe223Ala MTHFR [6]) was 500 ± 230 µM and the “change in standard free binding energy for CH2-H4folate” value (Phe223Ala MTHFR [6]) was 2.3 kcal/mol. The “decrease in affinity for CH2-H4folate compared to wild-type” value (Phe223Ala MTHFR [6]) was 45 fold, the “slower rate of oxidation compared to slow phase of wild-type” value (Phe223Ala MTHFR [6]) was 2 fold and the “k5’ maximal rate constant, slow phase” value (Phe223Ala MTHFR [6]; 25 °C, pH 7.2, anaerobic, slow phase (~16% of absorbance change)) was 4.5 ± 1.1 ^e s^−1.

For `CC1=CC(=O)c2ccccc2C1=O` [menadione], the “time of reaction of reduced enzyme with menadione” value (Phe223Ala MTHFR [7]) was at most 3 ms and the “time of reaction of reduced enzyme with menadione” value (Phe223Leu MTHFR [8]) was at most 3 ms.

For NADH, the “increase in Kd for NADH over wild-type enzyme” value (Phe223Leu MTHFR [9]) is listed as 14 fold, the “k2’ maximal observed rate constant for reduction” value (Phe223Leu MTHFR [9]; [16]) is listed as 35 ± 1 s⁻¹ and the Km (PheA2) is listed as 8.8 µM. For the same molecule, the “k2’ maximal observed rate constant for reduction” value (Phe223Ala MTHFR [10]; [16]) was 40 ± 2 s⁻¹, the “change in standard free binding energy for NADH” value (Phe223Ala MTHFR [10]; at 298 K, from 40-fold increase in Kd) was 2.2 kcal/mol and the kcat (wild-type MTHFR [11]) was 55 ± 8.3 s⁻¹. For the same molecule, the Km (HpaC) was 36.8 µM, the kcat (Phe223Ala MTHFR [12]) was 22 ± 4 s⁻¹ and the “increase in Km for NADH compared to wild-type” value (Phe223Leu MTHFR [13]) was 7 fold. For the same molecule, the kcat (Phe223Leu MTHFR [13]; […] μM menadione, varying NADH, 25 °C, pH 7.2) was 31 ± 4 s⁻¹, the “k2’” value (wild-type MTHFR [14]) was 55 ± 6 s⁻¹ and the Kd (wild-type MTHFR [14]; read-out: Kd for NADH) was 32 ± 5 µM.

For NADPH, the “ability to bind NADPH” value (Phe223Leu MTHFR [15]) was “no ability to bind NADPH”.
